{
  "source": "patent US20120295838A1",
  "about": "“Selective poly-substituted glycine antibiotics and related compositions” (priority 2008, published 2012)",
  "key": {"MTS assay, NIH 3T3 cells": {"assay": "MTS assay, NIH 3T3 cells", "format": "cell-based, mouse", "details": "NIH 3T3 fibroblast cells", "protocol": "The potencies of all compounds were determined against representative Gram-negative (E. coli ATCC 35218) and Gram-positive (B. subtilis ATCC 6633) biosafety level 1 (BSL1) organisms. In addition to hemolytic activity, the conventional measure of toxicity to mammalian cells, the effect of each ampetoid on NIH 3T3 mouse fibroblast cells was determined using the MTS tetrazolium salt-based colorimetric assay. While hemolysis measures the degree to which erythrocytes are lysed, the MTS assay indirectly quantifies the extent to which cellular metabolic activity is inhibited.\nMTS assays. NIH/3T3 cells (ATCC Corporation) cultured at 37° C. and 5% CO2 in complete Dulbecco's modified eagle's media (CDMEM) supplemented with 1% sodium pyruvate, 1% penicillin-streptomycin, 1.5 g/L NaHCO3, and 10% fetal bovine serum. Cells were seeded at a density of 5,000 cells per well for NIH/3T3 cells in 96-well plates (100 μl total volume). A peptoid solution plate (100 μL total volume per well) was prepared by serial dilution of aqueous peptoid stock solution in Hank's balanced salt solution (HBSS) media. The day-old cell monolayers were washed with HBSS and media was replaced with 100 μL HBSS. The contents of the peptoid solution plate were transferred onto corresponding wells of the cell monolayer plate, and 40 μL MTS reagent (Promega, Inc.) was added to each well. After incubating for 3 hours at 37° C., absorbance at 490 nm was determined. […] The average of six replicates is reported."}, "E. coli ATCC 35218": {"test_system": "E. coli ATCC 35218", "format": "cell-based", "details": "ATCC 35218", "protocol": "Whereas the preceding generation of molecules was designed to elucidate structure function relationships of specific molecular parameters (chirality, length, hydrophobicity, etc.), another generation compounds were designed explicitly to explore effects on selectivity. Antimicrobial activity of these compounds was tested against bacterial strains E. coli (ATTC 35218) and B. subtilis (ATTC 6633) in cation-adjusted MHB using the microdilution protocols previously described. The sequences, antimicrobial activities, hemolytic activities, and metabolic inhibitory concentrations against NIH 3T3 mouse fibroblast cells are summarized in Table 3 and the rationale of their design is described below.\nScreening antibacterial assays. MICs were determined in 96-well microtiter plates in accordance with CLSI M7-A6 protocols. Peptoid solutions with 50 μL total volume were prepared using 2:1 serial dilutions. 50 i—tL of bacteria inoculum (1×10^6 CFU/mL) prepared in cation-adjusted Mueller-Hinton broth (CAMHB) was added to test wells. Control wells contained 100 μL MHB (no growth) or 50 μL inoculums with 50 μL MHB with no peptoid. […] Reported values were reproducible over three experiments, each containing two parallel trials.\nAntibacterial Assays for Compositions. MICs were determined according to CLSI M7-A6 protocols in a 96-well microtiter plate. In test wells, 50 μL bacterial inoculum (1×10^6 CFU/ml) in cation-adjusted Mueller-Hinton broth (CAMHB) was added to 50 μL peptoid solution in CAMHB (prepared by 1:2 serial dilutions). Positive controls contained 50 μL inoculum and 50 μL CAMHB without peptoid. […] MIC values reported were reproducible between three independent experimental replicates, each consisting of two parallel trials."}, "human erythrocytes": {"test_system": "human erythrocytes", "assay": "Hemolysis assay", "format": "cell-based", "protocol": "(§1) Hemolysis assays. Erythrocytes were isolated from freshly drawn, heparanized human blood and resuspended to 20 vol % in PBS (pH 7.4). In a 96-well microtiter plate, 100 μL erythrocyte suspension was added to 100 uL peptoid solution in PBS (prepared by 1:2 serial dilutions), or 100 μL PBS in the case of negative controls. 100% hemolysis wells contained 100 μL, blood cell suspension with 100 μL 0.2 vol % Triton X-100. The plate was incubated for 1 h at 37° C., then each well was diluted with 1504 PBS. The plate was then centrifuged at 1200 g for 15 min, 100 μL of the supernatant from each well transferred to a fresh microtiter plate, and A350 measured.\nHemolysis assays. Erythrocytes were isolated from freshly drawn, heparanized human blood and resuspended in PBS (pH 7.4) to make a 20% volume suspension. Peptoid solutions were prepared by serial dilution (2:1) in a 96-well microtiter plate. For test wells, 100 μLL of erythrocyte suspension was added to 100 μL of peptoid solution in PBS; PBS without peptoid was used as the negative control and 0.2 vol % Triton X-100 as the positive control that indicates 100% hemolysis. After 1 hour incubation at 37° C., each well was diluted with 150 μL PBS. Plates were then centrifuged at 1,200×g for 15 minutes to pellet the cells. 30 μL of the supernatant from each well were transferred to the corresponding well of a second 96-well plate that contains 70 μL PBS.\nas §1, with “assays for Compositions.” for “assays.”, “100” for “100 uL”, “μL” for “μL,”, “150 μL” for “1504”, “1200g” for “1200 g”"}, "[1]": {"details": "Table 6, 50% inhibitory dose against NIH 3T3 mouse fibroblast cells, read-out: ID50"}},
  "note": "Read-outs that look alike come from different tables or passages of the source. Square brackets hold non-standard residues; d marks the D form. Peptide text beside a SMILES is read from it. N(1S-Me-propyl)Gly = CC[C@H](C)NCC(=O)O; Nrpe = C[C@@H](NCC(=O)O)c1ccccc1; Nspe = C[C@H](NCC(=O)O)c1ccccc1; Nlys = NCCCCNCC(=O)O",
  "data": [
    {"smiles": "C[C@@H](c1ccccc1)N(CC(N)=O)C(=O)CN(C(=O)CN(CCCCN)C(=O)[C@@H]1CCCN1C(=O)CN(C(=O)CN(CCCCN)C(=O)CN(C(=O)CN(C(=O)CN(CCCCN)C(=O)[C@@H]1CCCN1C(=O)CN(C(=O)CNCCCCN)[C@@H](C)c1ccccc1)[C@@H](C)c1ccccc1)[C@@H](C)c1ccccc1)[C@@H](C)c1ccccc1)[C@@H](C)c1ccccc1", "note": "[1-Pro3,9, H-(Nlys-Nspe-L-Pro-Nlys-Nspe-Nspe)2-NH2] (H-[Nlys][Nspe]P[Nlys][Nspe][Nspe][Nlys][Nspe]P[Nlys][Nspe][Nspe]-NH2)", "values": [
      {"measurement": "CC50 at 3 h", "setting": "MTS assay, NIH 3T3 cells; mouse", "result": 71, "unit": "µM"},
      {"measurement": "E. coli MIC", "setting": "E. coli ATCC 35218", "result": 50, "unit": "µM"}
    ]},
    {"smiles": "C[C@H](NCC(=O)N(CCCCN)CC(=O)N(CC(=O)N(CCCCN)CC(=O)N(CCCCN)CC(=O)N(CCCCN)CC(=O)N(CC(=O)N(CCCCN)CC(=O)N(CC(=O)N(CCCCN)CC(=O)N(CCCCN)CC(=O)N(CC(=O)N(CC(=O)N(CCCCN)CC(=O)N(CC(N)=O)[C@@H](C)c1ccccc1)[C@@H](C)c1ccccc1)[C@@H](C)c1ccccc1)[C@@H](C)c1ccccc1)[C@@H](C)c1ccccc1)[C@@H](C)c1ccccc1)c1ccccc1", "note": "[1B15 mer-Nlys4,6,10, H-Nspe-Nlys-Nspe-Nlys-Nlys-Nlys-Nspe-Nlys-Nspe-Nlys-Nlys-Nspe-Nspe-Nlys-Nspe-NH2] (H-[Nspe][Nlys][Nspe][Nlys][Nlys][Nlys][Nspe][Nlys][Nspe][Nlys][Nlys][Nspe][Nspe][Nlys][Nspe]-NH2)", "values": [
      {"measurement": "CC50 at 3 h", "setting": "MTS assay, NIH 3T3 cells; mouse", "result": 40, "unit": "µM"},
      {"measurement": "E. coli MIC", "setting": "E. coli ATCC 35218", "result": ">100", "unit": "µM"}
    ]},
    {"smiles": "C[C@@H](c1ccccc1)N(CC(=O)N(CCCCN)CC(=O)N(CC(=O)N(CC(=O)N(CCCCN)CC(=O)N(CC(=O)N(CC(=O)N(CCCCN)CC(=O)N(CC(=O)N(CC(=O)N(CCCCN)CC(N)=O)[C@@H](C)c1ccccc1)[C@@H](C)c1ccccc1)[C@@H](C)c1ccccc1)[C@@H](C)c1ccccc1)[C@@H](C)c1ccccc1)[C@@H](C)c1ccccc1)C(=O)CN(C(=O)CNCCCCN)[C@@H](C)c1ccccc1", "note": "[113 mer, H-(Nlys-Nspe-Nspe)4-Nlys-NH2] (H-[Nlys][Nspe][Nspe][Nlys][Nspe][Nspe][Nlys][Nspe][Nspe][Nlys][Nspe][Nspe][Nlys]-NH2)", "values": [
      {"measurement": "CC50 at 3 h", "setting": "MTS assay, NIH 3T3 cells; mouse", "result": 5.6, "unit": "µM"},
      {"measurement": "E. coli MIC", "setting": "E. coli ATCC 35218", "result": 3.1, "unit": "µM"}
    ]},
    {"smiles": "CC[C@H](C)N(CC(=O)N(CC(=O)N(CC(=O)N(CCCCN)CC(N)=O)[C@@H](C)c1ccccc1)[C@@H](C)CC)C(=O)CN(CCCCN)C(=O)CN(C(=O)CN(CCCCN)C(=O)CN(C(=O)CN(C(=O)CN(C(=O)CN(C(=O)CNCCCCN)[C@@H](C)CC)[C@@H](C)c1ccccc1)[C@@H](C)CC)[C@@H](C)c1ccccc1)[C@@H](C)c1ccccc1", "note": "[2scrambled, H-Nlys-Nssb-Nspe-Nssb-Nspe-Nlys-Nspe-Nlys-Nssb-Nssb-Nspe-Nlys-NH2] (H-[Nlys][N(1S-Me-propyl)Gly][Nspe][N(1S-Me-propyl)Gly][Nspe][Nlys][Nspe][Nlys][N(1S-Me-propyl)Gly][N(1S-Me-propyl)Gly][Nspe][Nlys]-NH2)", "values": [
      {"measurement": "HD10 (10% hemolytic dose)", "setting": "human erythrocytes", "result": "> 120", "unit": "µM"}
    ]},
    {"smiles": "C[C@H](c1ccccc1)N(CC(=O)N(CC(N)=O)[C@@H](C)c1ccccc1)C(=O)CN(CCCCN)C(=O)CN(C(=O)CN(C(=O)CN(CCCCN)C(=O)CN(C(=O)CN(C(=O)CN(CCCCN)C(=O)CN(C(=O)CN(C(=O)CNCCCCN)[C@H](C)c1ccccc1)[C@@H](C)c1ccccc1)[C@H](C)c1ccccc1)[C@@H](C)c1ccccc1)[C@H](C)c1ccccc1)[C@@H](C)c1ccccc1", "note": "[1-Nrpe2,5,8,11, H-(Nlys-Nrpe-Nspe)4-NH2] (H-[Nlys][Nrpe][Nspe][Nlys][Nrpe][Nspe][Nlys][Nrpe][Nspe][Nlys][Nrpe][Nspe]-NH2)", "values": [
      {"measurement": "CC50 at 3 h", "setting": "MTS assay, NIH 3T3 cells; [1]", "result": 5.2, "unit": "µM"}
    ]},
    {"smiles": "C[C@H](c1ccccc1)N(CC(N)=O)C(=O)CN(C(=O)CN(CCCCN)C(=O)CN(C(=O)CN(C(=O)CN(CCCCN)C(=O)CN(C(=O)CN(C(=O)CN(CCCCN)C(=O)CN(C(=O)CN(C(=O)CNCCCCN)[C@@H](C)c1ccccc1)[C@H](C)c1ccccc1)[C@@H](C)c1ccccc1)[C@H](C)c1ccccc1)[C@@H](C)c1ccccc1)[C@H](C)c1ccccc1)[C@@H](C)c1ccccc1", "note": "[1-Nrpe3,6,9,12, H-(Nlys-Nspe-Nrpe)4-NH2]", "values": [
      {"measurement": "CC50 at 3 h", "setting": "MTS assay, NIH 3T3 cells; [1]", "result": 3.8, "unit": "µM"}
    ]},
    {"smiles": "C[C@H](NCC(=O)N(CCCCN)CC(=O)N(CC(=O)N(CCCCN)CC(=O)N(CCCCN)CC(=O)N(CCCCN)CC(=O)N(CC(=O)N(CCCCN)CC(=O)N(CC(=O)N(CCCCN)CC(=O)N(CCCCN)CC(=O)N(CC(N)=O)[C@@H](C)c1ccccc1)[C@@H](C)c1ccccc1)[C@@H](C)c1ccccc1)[C@@H](C)c1ccccc1)c1ccccc1", "note": "[1B12 mer-Nlys4,6,10, H-Nspe-Nlys-Nspe-Nlys-Nlys-Nlys-Nspe-Nlys-Nspe-Nlys-Nlys-Nspe-NH2] (H-[Nspe][Nlys][Nspe][Nlys][Nlys][Nlys][Nspe][Nlys][Nspe][Nlys][Nlys][Nspe]-NH2)", "values": [
      {"measurement": "CC50 at 3 h", "setting": "MTS assay, NIH 3T3 cells; mouse", "result": "> 100", "unit": "µM"}
    ]},
    {"smiles": "C[C@@H](c1ccccc1)N(CC(N)=O)C(=O)CN(C(=O)CN(CCC(=O)O)C(=O)CN(C(=O)CN(C(=O)CN(CCC(=O)O)C(=O)CN(C(=O)CN(C(=O)CN(CCC(=O)O)C(=O)CN(C(=O)CN(C(=O)CNCCC(=O)O)[C@@H](C)c1ccccc1)[C@@H](C)c1ccccc1)[C@@H](C)c1ccccc1)[C@@H](C)c1ccccc1)[C@@H](C)c1ccccc1)[C@@H](C)c1ccccc1)[C@@H](C)c1ccccc1", "note": "[1-Nglu1.4.7.10, H-(Nglu-Nspe-Nspe)4-NH2]", "values": [
      {"measurement": "HD10 (10% hemolytic dose)", "setting": "human erythrocytes; red cells of human, 1 h", "result": ">110/>110 μM"}
    ]},
    {"smiles": "C[C@H](c1ccccc1)N(CC(=O)N(CCCCN)CC(=O)N(CC(=O)N(CC(=O)N(CCCCN)CC(=O)N(CC(=O)N(CC(=O)N(CCCCN)CC(=O)N(CC(=O)N(CC(N)=O)[C@@H](C)c1ccccc1)[C@@H](C)c1ccccc1)[C@@H](C)c1ccccc1)[C@@H](C)c1ccccc1)[C@H](C)c1ccccc1)[C@H](C)c1ccccc1)C(=O)CN(C(=O)CNCCCCN)[C@H](C)c1ccccc1", "note": "[1-Nrpe2,3,5,6, H-(Nlys-Nrpe-Nrpe)2-(Nlys-Nspe-Nspe)2-NH2] (H-[Nlys][Nrpe][Nrpe][Nlys][Nrpe][Nrpe][Nlys][Nspe][Nspe][Nlys][Nspe][Nspe]-NH2)", "values": [
      {"measurement": "CC50 at 3 h", "setting": "MTS assay, NIH 3T3 cells; [1]", "result": 4.8, "unit": "µM"}
    ]},
    {"smiles": "C[C@@H](c1ccccc1)N(CC(N)=O)C(=O)CN(C(=O)CN(CCCCN)C(=O)CN(C(=O)CN(C(=O)CNCCCCN)[C@@H](C)c1ccccc1)[C@@H](C)c1ccccc1)[C@@H](C)c1ccccc1", "note": "[16 mer, H-(Nlys-Nspe-Nspe)2-NH2] (H-[Nlys][Nspe][Nspe][Nlys][Nspe][Nspe]-NH2)", "values": [
      {"measurement": "HD10", "setting": "human erythrocytes", "result": ">200/>200 μM"},
      {"measurement": "HD50", "setting": "human erythrocytes", "result": ">200/>200 μM"}
    ]}
  ]
}
